Several values for one entry are separate records, joined by “and”; a condition that tells them apart may be missing. Equal entries are not always repeated.
Experiments:
[1] = system: STAT-1 target genes in AT3-OVA tumors; assay: qPCR of STAT-1 target genes in AT3-OVA tumors; assay type: in vivo, mouse; design: key: relative expression by comparative Ct (ΔΔCt), normalized to Rps18 or Gapdh; conditions: tumour gene expression, Lck-Cre;Ptpn2flfl+CMP-182, individual mice (Figure 7F)
Procedure: For quantitative real-time PCR analysis, RNA from tumors was isolated using RNAzol (Sigma-Aldrich, St. Louis, MO), and RNA quality was assessed using a NanoDrop 2000 (Thermo Fisher Scientific, Waltham MA). mRNA was reverse-transcribed using the High-Capacity cDNA Reverse Transcription Kit (Applied Biosystems, Thermo Fisher Scientific, Waltham, MA) and processed for quantitative Real-Time PCR using the Fast SYBR Green Master Mix (Applied Biosystems, Thermo Fisher Scientific, Waltham MA) and PrimePCR™ SYBR Green Assays (Bio-Rad, Hercules, CA) for Cxcl9 (qMmuCID0023784), Cxcl10 (qMmuCED0049500), Tapbp (qMmuCEP0035035), Tap1 (qMmuCEP0057739), […], H2ab1 (qMmuCIP0029038), Cd274 (qMmuCED0044192), H2k1 (qMmuCEP0034842), Tnf (qMmuCED0004141) and Ifng (qMmuCID0006268). Relative gene expression was determined by normalization to the house-keeping gene Rps18 (qMmuCED0045430) or Gapdh (qMmuCED0027497). Gene quantification was performed with the comparative Ct (ΔΔCt) method.

[2] = system: AT3 mammary tumors; assay: AT3 mammary tumor growth in C57BL/6 mice; assay type: in vivo, mouse
Procedure: Male or female mice were injected subcutaneously with 5 × 10^5 MC38 tumor cells resuspended in 100 μl D-PBS into the flank. Alternatively, female mice were injected orthotopically with 5 × 10^5 AT3 or AT3-OVA or PTPN2-deleted AT3 or AT3-OVA tumor cells resuspended in 20 μl D-PBS into the fourth mammary fat pad. Tumor sizes were measured in two dimensions (mm^2) using electronic callipers two to three times per week as soon as tumors were palpable (20–25 mm^2).

[3] = system: OT-I CD8+ T cells; assay: T cell activation assay (CD25, CD69 by flow cytometry); assay type: cell-based, mouse; conditions: for CD25, group mean (Mean 2) / CD69, group mean (Mean 2): Fig. 2A; for CD25 (MFI), single replicates / CD69 (MFI), single replicates: N4 1 nM, 1 μM, 48 h, Fig. 2A raw data
Procedure: The cell surface markers CD8, CD25, and CD69 were analyzed using fluorophore-conjugated antibodies by flow cytometry.

[4] = molecular target: T1, PTP1B (Homo sapiens, UniProt P18031); assay: Jump-dilution assay; assay type: biochemical; conditions: 30 min preincubation, 50-fold dilution into 100 µM DiFMUP
T1 construct: PTP1B, residues 1-321; made in house; host or cells: E. coli BL21(DE3)
T1 sequence (P18031 1-321): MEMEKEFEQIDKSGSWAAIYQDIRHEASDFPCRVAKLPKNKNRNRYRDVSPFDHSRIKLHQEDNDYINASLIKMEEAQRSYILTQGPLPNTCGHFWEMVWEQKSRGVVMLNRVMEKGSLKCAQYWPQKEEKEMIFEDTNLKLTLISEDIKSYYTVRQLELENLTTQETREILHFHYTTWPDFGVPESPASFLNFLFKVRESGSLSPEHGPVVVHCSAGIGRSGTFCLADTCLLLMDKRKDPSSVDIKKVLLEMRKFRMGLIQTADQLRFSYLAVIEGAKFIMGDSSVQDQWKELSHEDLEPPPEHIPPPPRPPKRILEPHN
Procedure: The reaction was allowed to proceed for 10 min under room temperature and was quenched by addition of a 160 µM solution of bpV(Phen). The fluorescence signal was measured using a CLARIOstar Plus Microplate Spectrophotometer (BMG Labtech) using excitation and emission wavelengths of 340 nm and 450 nm, respectively. Data were fitted using Prism GraphPad 9.2.0.

[5] = system: AT3-OVA mammary tumors; assay: Tumor-infiltrating lymphocytes in AT3-OVA tumors of Lck-Cre;Ptpn2fl/fl mice; assay type: in vivo, mouse; design: NK cells / Tregs / MDSCs / CD4 EM / CD8 EM / B cells / IFNg TNF / GRZMB: unit not given here
Procedure: Tumor-bearing mice were sacrificed and tumors were excised and digested at 37 °C for 30 min using a cocktail of 1 mg/ml collagenase type IV (Worthington Biochemicals) and 0.02 mg/ml DNase I (Sigma-Aldrich) in DMEM supplemented with 2% (v/v) FBS. Cells were passed through a 70 μm cell strainer (BD Biosciences) twice and processed for flow cytometry. For assessing T cell activation, cells were surface stained with fluorophore-conjugated antibodies to CD62L, CD44, PD-1, and TIM-3. For the assessment of NK cells, B cells, myeloid-derived suppressor cells (MDSCs), dendritic cells (DCs), and tumor-associated macrophages, cells were surface stained with fluorophore-conjugated antibodies to NK1.1, TCRβ, CD19, CD11b, CD11c, F4/80, Ly6C and Ly6G. For the detection of intracellular cytokines TNF and IFNγ, T cells were stimulated with PMA (20 ng/ml; Sigma-Aldrich) and ionomycin (1 μg/ml; Sigma-Aldrich) in the presence of GolgiPlug™ and GolgiStop™ (BD Biosciences) for 4 h at 37 °C in complete T cell medium. For the intracellular detection of granzyme B, cells were processed untreated without the addition of BD GolgiPlug™ and BD GolgiStop™.

[6] = Lck-Cre;Ptpn2fl/fl (2K) OT-I cells, listed as 2KI
[7] = wild type OT-I cells + inhibitor, n 6
[8] = wild type OT-I cells, listed as WTI
[9] = Lck-Cre;Ptpn2fl/fl mice, individual mice (Figure 7D), listed as CMP-182
[10] = tumour-infiltrating cells, Lck-Cre;Ptpn2fl/fl mice n=6, individual mice (Figure 7C), listed as CMP-182

SMILES: CC(C)(O)CCOc1ccc2cc(O)c(N3CC(=O)NS3(=O)=O)c(F)c2c1 [Compound 182, 5-(1-Fluoro-3-hydroxy-7-(3-hydroxy-3-methylbutoxy)naphthalen-2-yl)−1,2,5-thiadiazolidin-3-one 1,1-dioxide]
- H2-Ab1 [1]: 1.37 and 2.449 and 1.819 and 1.855 and 0.6743 and 0.4848
- IFNg [1]: 2.663 and 2.871 and 3.337 and 2.746 and 0.6434 and 0.3583
- cd274 [1]: 1.409 and 1.249 and 1.434 and 1.371 and 1.147 and 0.5391
- cxcl9 [1]: 1.651 and 1.828 and 1.511 and 1.806 and 0.4356 and 0.3111
- cxcl10 [1]: 1.078 and 1.3193 and 1.359 and 1.098 and 0.6504 and 0.3928
- Tumour weights AT-3, individual mice ([2]; 10 mg, Figure 4D, listed as CMP-182, in mg (unit assumed)): 433 and 615 and 255 and 610 and 642 and 344
- Tumour growth AT-3, individual mice ([2]; 10 mg, day 10 post injection, listed as CMP-182, in mm2): 18.92 and 38.28 and 21.93 and 30.78 and 35.75 and 25.97
- Tumour growth AT-3, individual mice ([2]; 10 mg, day 13 post injection, listed as CMP-182, in mm2): 24.01 and 35.1 and 25.44 and 30.24 and 37.12 and 27.5
- Tumour growth AT-3, individual mice ([2]; 10 mg, day 16 post injection, listed as CMP-182, in mm2): 28.5 and 42.21 and 23.76 and 29.58 and 41.04 and 36.4
- Tumour growth AT-3, individual mice ([2]; 10 mg, day 19 post injection, listed as CMP-182, in mm2): 40.71 and 52.8 and 61.32 and 46.5 and 44.4 and 42.9
- Tumour growth AT-3, individual mice ([2]; 10 mg, day 22 post injection, listed as CMP-182, in mm2): 40.95 and 59.13 and 71.25 and 50.16 and 54.4 and 49.4
- Tumour growth AT-3, individual mice ([2]; 10 mg, day 25 post injection, listed as CMP-182, in mm2): 70.31 and 63.7 and 89.04 and 67.08 and 73.15 and 57.67
- Tumour growth AT-3, individual mice ([2]; 10 mg, day 27 post injection, listed as CMP-182, in mm2): 77.08 and 74.4 and 63 and 65.86 and 98.28 and 55.44
- growth of orthotopic AT3 mammary tumors ([2]; 10 mg/kg i.v. every 2 days): repressed the growth
- Tumour weights, median ([2]; AT-3 tumours, CMP-182 10 mg, n=6, Figure 4D): 521.5, n=6
- Tumour size, predicted column mean over all time points ([2]; AT-3 tumours, CMP-182 10 mg, n=6, Figure 4D, in mm2): 48.13
- Tumour size, Mean 2 ([2]; AT-3 tumours, CMP-182 10 mg, n=6, time point 10, Figure 4D, in mm2): 28.61
- Tumour size, Mean 2 ([2]; AT-3 tumours, CMP-182 10 mg, n=6, time point 13, Figure 4D, in mm2): 29.9
- Tumour size, Mean 2 ([2]; AT-3 tumours, CMP-182 10 mg, n=6, time point 16, Figure 4D, in mm2): 33.58
- Tumour size, Mean 2 ([2]; AT-3 tumours, CMP-182 10 mg, n=6, time point 19, Figure 4D, in mm2): 48.11
- Tumour size, Mean 2 ([2]; AT-3 tumours, CMP-182 10 mg, n=6, time point 22, Figure 4D, in mm2): 54.22
- Tumour size, Mean 2 ([2]; AT-3 tumours, CMP-182 10 mg, n=6, time point 25, Figure 4D, in mm2): 70.16
- Tumour size, Mean 2 ([2]; AT-3 tumours, CMP-182 10 mg, n=6, time point 27, Figure 4D, in mm2): 72.34
- CD25, group mean (Mean 2) ([3]; 2K OT-I cells + inhibitor, n 4): 49238
- CD69, group mean (Mean 2) ([3]; 2K OT-I cells + inhibitor, n 4): 3065
- CD25 (MFI), single replicates [3, 6]: 50690 and 58145 and 42341 and 45775
- CD69 (MFI), single replicates [3, 6]: 3049 and 3660 and 3360 and 2191
- antigen-induced activation of CD8+ T cells (CD25, CD69) ([3]; OT-I cells, SIINFEKL (N4)): enhanced
- CD25, group mean (Mean 2) [3, 7]: 43739
- CD69, group mean (Mean 2) [3, 7]: 2723
- CD25 (MFI), single replicates [3, 8]: 44120 and 42537 and 42315 and 46694 and 45914 and 40851
- CD69 (MFI), single replicates [3, 8]: 2509 and 2213 and 3486 and 2750 and 2693 and 2686
- reversibility of inhibition [4]: reversible
- IFNγ+TNF+ infiltrating CD8+ T cells in Lck-Cre;Ptpn2fl/fl mice ([5]; 10 mg/kg i.v.): significantly increased
- GRZMB [5, 9]: 75.7 and 29.8 and 80.2 and 60 and 76.3 and 38.3
- IFNg TNF [5, 9]: 26.1 and 36.3 and 38 and 37.5 and 35.3 and 36.7
- TILs in AT3-OVA tumors of Lck-Cre;Ptpn2fl/fl mice ([5]; compared with untreated Lck-Cre;Ptpn2fl/fl mice): not accompanied by any significant changes
- B cells [5, 10]: 170392 and 46995.6 and 105275 and 126695 and 155871 and 80840.6
- CD4 EM [5, 10]: 52213.7 and 43853.2 and 131869 and 64047.3 and 133510 and 49758.5
- CD8 EM [5, 10]: 137803 and 79204.9 and 701666 and 167038 and 463610 and 106200
- MDSCs [5, 10]: 220000 and 235417 and 32287.6 and 56721.3 and 90563.2 and 25765.3
- NK cells [5, 10]: 58097.7 and 15907.7 and 22173.4 and 86915 and 66469.7 and 20906.1
- Tregs [5, 10]: 31347.8 and 26539.2 and 15097.8 and 25883.4 and 26206.9 and 21641.1

Source: publication PMC10374545, “A small molecule inhibitor of PTP1B and PTPN2 enhances T cell anti-tumor immunity” (Nature Communications, 2023)
